Literature values as cited in paper PMC4840272 (Neoplasia (New York, N.Y.), 2016).

Conditions: cited from earlier work

## Cn1c(CCCC(=O)O)nc2cc(N(CCCl)CCCl)ccc21 [bendamustine]
  elimination t1/2: approximately 40 minutes
